From patent US11304929B2, “Tosylacetate based compounds and derivatives thereof as PHGDH inhibitors” (priority 2017, dated 2022)

Each molecule was assayed against PHGDH (Homo sapiens (Human), UniProt O43175) (assay: 3-Phosphoglycerate Dehydrogenase (PHGDH) Fluorescence Intensity Assay, run at two NAD/3-PG ratios: PHGDH_HIGH_NAD/3-PG (250 μM NAD/500 μM 3-PG) and PHGDH_500_NAD/3-PG (500 μM NAD/500 μM 3-PG)). Details: 250 μM NAD/500 μM 3-PG; read-out: IC50 (PHGDH_HIGH_NAD/3-PG).
Format: biochemical
Excerpt: This assay is used to identify compounds which inhibit the enzymatic activity of PHGDH which catalyzes the reaction of 3-Phosphoglycerate (3-PG) and NAD to 3-Phosphohydroxypyruvate and NADH.
The produced NADH is used in a coupled reaction for Diaphorase mediated reduction of Resazurin to Resorufin which can be measured in a Fluorescence Intensity readout.
The full length version of PHGDH enzyme was expressed in E. coli with an N-terminal HIS-tag and a TEV cleavage site.
The 3-Phosphoglycerate substrate was purchased from Sigma. NAD, Diaphorase and Resazurin were purchased from Sigma Aldrich.
Compounds are dispensed onto assay plates (black, low volume, flat bottom 384 well, Corning) using an Access Labcyte Workstation with the Labcyte Echo 55× from a DMSO solution. For the chosen highest assay concentration of 100 μM, 150 nl of compound solution are transferred from a 10 mM DMSO compound stock solution. A series of 11 concentrations (10 1:5 steps) is transferred for each compound.
The assay has been performed at two different NAD/3-PG ratios (final assay concentrations):
Plates are kept at room temperature. After 240 minutes incubation time the fluorescence signal is measured in a PerkinElmer Envision HTS Multilabel Reader with an excitation wavelength at 530-560 nm and an emission wavelength at 590 nm.
Each plate contains negative controls (diluted DMSO instead of test compound; reaction as described with PHGDH protein) and positive controls (diluted DMSO instead of test compound; reaction as described with buffer instead of PHGDH protein). Negative and positive control values are used for normalization.
IC50 values are calculated and analyzed in the MEGALAB IC50 application using a 4 parametric logistic model.

PHGDH, sequence (O43175 2-533 limits assumed): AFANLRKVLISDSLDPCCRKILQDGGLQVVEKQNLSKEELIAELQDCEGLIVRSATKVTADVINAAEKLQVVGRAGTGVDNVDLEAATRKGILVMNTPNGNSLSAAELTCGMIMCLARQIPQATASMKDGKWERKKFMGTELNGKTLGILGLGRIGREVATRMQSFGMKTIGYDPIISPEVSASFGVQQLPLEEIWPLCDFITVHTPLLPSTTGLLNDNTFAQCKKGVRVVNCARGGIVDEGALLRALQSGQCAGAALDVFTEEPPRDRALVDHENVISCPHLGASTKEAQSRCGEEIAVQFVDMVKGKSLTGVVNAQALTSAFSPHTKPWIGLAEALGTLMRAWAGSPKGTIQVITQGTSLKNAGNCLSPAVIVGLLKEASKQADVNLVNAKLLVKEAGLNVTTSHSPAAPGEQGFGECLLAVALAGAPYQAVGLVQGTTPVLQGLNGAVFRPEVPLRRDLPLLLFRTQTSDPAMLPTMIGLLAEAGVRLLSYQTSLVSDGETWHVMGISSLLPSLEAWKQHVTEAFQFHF

Point of comparison: `Cc1cc(Cl)c2cc(C(=O)N[C@H](C)c3ccc(S(=O)(=O)CC(=O)OC(C)(C)C)cc3)n(C)c2c1` [Example 01-014, tert-butyl 2-{4-[(1R)-1-[(4-chloro-1,6-dimethyl-1H-indol-2-yl)formamido]ethyl]benzenesulfonyl}acetate], IC50 4250 nM. Against it:
- Cc1cc(Cl)c2cc(C(=O)N[C@H](C)c3ccc(S(=O)(=O)CC(=O)OC4COC4)cc3)n(C)c2c1 [Example 09-025, oxetan-3-yl 2-{4-[(1R)-1-[(4-chloro-1,6-dimethyl-1H-indol-2-yl)formamido]ethyl]benzenesulfonyl}acetate] — 59-fold lower, 72 nM
- Cc1cc(Cl)c2cc(C(=O)N[C@H](C)c3ccc(S(=O)(=O)CC(=O)OCC4CC4)cc3)n(C)c2c1 [Example 09-016, cyclopropylmethyl 2-{4-[(1R)-1-[(4-chloro-1,6-dimethyl-1H-indol-2-yl)formamido]ethyl]benzenesulfonyl}acetate] — 2-fold lower, 2100 nM
- COC(=O)C(C)(C)S(=O)(=O)c1ccc([C@@H](C)NC(=O)c2cc3c(Cl)c(Cl)c(C)nc3n2C)cc1 [Example 05-020, methyl 2-{4-[(1R)-1-({4,5-dichloro-1,6-dimethyl-1H-pyrrolo[2,3-b]pyridin-2-yl}formamido)ethyl]benzenesulfonyl}-2-methylpropanoate] — higher, > 20000 nM
- C[C@@H](NC(=O)c1cc(-c2ccc(F)cc2)nn1C)c1ccc(S(=O)(=O)C2(C(=O)O)CCCC2)cc1 [Example 08-002, 1-{4-[(1R)-1-{[3-(4-fluorophenyl)-1-methyl-1H-pyrazol-5-yl]formamido}ethyl]benzenesulfonyl}cyclopentane-1-carboxylic acid] — 57-fold lower, 74 nM
- CCOC(=O)C(C)(C)S(=O)(=O)c1ccc([C@@H](C)NC(=O)c2cc3c(Cl)c(Cl)c(C)nc3n2C)cc1 [Example 05-016, ethyl 2-{4-[(1R)-1-({4,5-dichloro-1,6-dimethyl-1H-pyrrolo[2,3-b]pyridin-2-yl}formamido)ethyl]benzenesulfonyl}-2-methylpropanoate] — higher, > 100000 nM
- Cc1cc(Cl)c2cc(C(=O)N[C@H](CO)c3ccc(S(=O)(=O)CC(=O)OCCO)cc3)n(C)c2c1 [Example 09-034, 2-hydroxyethyl 2-{4-[(1S)-1-[(4-chloro-1,6-dimethyl-1H-indol-2-yl)formamido]-2-hydroxyethyl]benzenesulfonyl}acetate] — 82-fold lower, 52 nM
- Cc1cc(Cl)c2cc(C(=O)N[C@H](C)c3ccc(S(=O)(=O)CC(=O)OCC(CO)COC(=O)C(C)(C)C)cc3)n(C)c2c1 (stereo partly drawn) [Example 09-026, 2-{[(2-{4-[(1R)-1-[(4-chloro-1,6-dimethyl-1H-indol-2-yl)formamido]ethyl]benzenesulfonyl}acetyl)oxy]methyl}-3-hydroxypropyl 2,2-dimethylpropanoate] — 3-fold lower, 1410 nM
- CCCC(C(=O)OC)S(=O)(=O)c1ccc([C@@H](C)NC(=O)c2cc3c(Cl)cc(C)cc3n2C)cc1 (stereo partly drawn) [Example 05-015, methyl 2-{4-[(1R)-1-[(4-chloro-1,6-dimethyl-1H-indol-2-yl)formamido]ethyl]benzenesulfonyl}pentanoate] — within 1.5-fold, 3470 nM
- COC(=O)C[S@+]([O-])c1ccc([C@@H](C)NC(=O)c2cc3c(Cl)cc(C)cc3n2C)cc1 [Example 11-007, methyl 2-[(S)-4-[(1R)-1-[(4-chloro-1,6-dimethyl-1H-indol-2-yl)formamido]ethyl]benzenesulfinyl]acetate] — 18-fold lower, 234 nM
- Cc1cc(Cl)c2cc(C(=O)N[C@H](C)c3ccc(S(=O)(=O)CC(=O)O[C@H]4CCOC4)cc3)n(C)c2c1 [Example 09-018, (3S)-oxolan-3-yl 2-{4-[(1R)-1-[(4-chloro-1,6-dimethyl-1H-indol-2-yl)formamido]ethyl]benzenesulfonyl}acetate] — 10-fold lower, 418 nM
- COCCOC(=O)CS(=O)(=O)c1ccc([C@@H](C)NC(=O)c2cc(-c3ccccc3)nn2C)cc1 [Example 10-001, 2-methoxyethyl 2-{4-[(1R)-1-[(1-methyl-3-phenyl-1H-pyrazol-5-yl)formamido]ethyl]benzenesulfonyl}acetate] — 2.9-fold lower, 1450 nM
- Cc1cc2c(cc(C(=O)N[C@H](CO)c3ccc([S@@+]([O-])CC(=O)O)cc3)n2C)c(Cl)c1Cl [Example 12-001, 2-[(S)-4-[(1S)-1-[(4,5-dichloro-1,6-dimethyl-1H-indol-2-yl)formamido]-2-hydroxyethyl]benzenesulfinyl]acetic acid] — 610-fold lower, 7 nM
- COC(=O)C(C)(C)S(=O)(=O)c1ccc([C@@H](C)NC(=O)c2cc3cc(Cl)ccc3n2C)cc1 [Example 05-002, methyl 2-{4-[(1R)-1-[(5-chloro-1-methyl-1H-indol-2-yl)formamido]ethyl]benzenesulfonyl}-2-methylpropanoate] — 7.8-fold higher, 33100 nM
- Cc1cc(Cl)c2cc(C(=O)N[C@H](C)c3ccc(S(=O)(=O)CC(=O)OC(C)C)cc3)n(C)c2c1 [Example 01-024, propan-2-yl 2-{4-[(1R)-1-[(4-chloro-1,6-dimethyl-1H-indol-2-yl)formamido]ethyl]benzenesulfonyl}acetate] — within 1.5-fold, 3550 nM
- Cc1cc2c(cc(C(=O)N[C@H](C)c3ccc(S(=O)(=O)CC(=O)O[13CH3])cc3)n2C)c(Cl)c1Cl [Example 01-022, (^13C)methyl 2-{4-[(1R)-1-[(4,5-dichloro-1,6-dimethyl-1H-indol-2-yl)formamido]ethyl]benzenesulfonyl}acetate] — 10-fold lower, 414 nM
- COC(=O)CS(=O)(=O)c1ccc([C@@H](C)NC(=O)c2cc(-c3cccc4cc[nH]c34)nn2C)cc1 [Example 02-006, methyl 2-{4-[(1R)-1-{[3-(1H-indol-7-yl)-1-methyl-1H-pyrazol-5-yl]formamido}ethyl]benzenesulfonyl}acetate] — 3.3-fold lower, 1270 nM

Same assay, conditions: 500 μM NAD/500 μM 3-PG; read-out: IC50 (PHGDH_500_NAD/3-PG)

Point of comparison: `Cc1cc2c(cc(C(=O)N[C@H](CO)c3ccc(S(=O)(=O)CC(=O)OCC(C)(C)O)cc3)n2C)c(Cl)c1Cl` [Example 09-039, 2-hydroxy-2-methylpropyl 2-{4-[(1S)-1-[(4,5-dichloro-1,6-dimethyl-1H-indol-2-yl)formamido]-2-hydroxyethyl]benzenesulfonyl}acetate], IC50 168 nM. Against it:
- Cc1cc2c(cc(C(=O)N[C@H](C)c3ccc([S+]([O-])CC(=O)O)cc3)n2C)c(Cl)c1Cl (stereo partly drawn) [Example 12-008, 2-{4-[(1R)-1-[(4,5-dichloro-1,6-dimethyl-1H-indol-2-yl)formamido]ethyl]benzenesulfinyl}acetic acid] — 21-fold lower, 8 nM
- Cc1cc2c(cc(C(=O)N[C@H](CO)c3ccc([S@@+]([O-])CC(=O)OC(C)C)cc3)n2C)c(F)c1F [Example 13-004, propan-2-yl 2-[(S)-4-[(1S)-1-[(4,5-difluoro-1,6-dimethyl-1H-indol-2-yl)formamido]-2-hydroxyethyl]benzenesulfinyl]acetate] — 4.1-fold higher, 690 nM
- C[C@@H](NC(=O)c1cc(-c2ccc(F)cc2)nn1C)c1ccc(S(=O)(=O)C2(C(=O)O)CCCC2)cc1 [Example 08-002, 1-{4-[(1R)-1-{[3-(4-fluorophenyl)-1-methyl-1H-pyrazol-5-yl]formamido}ethyl]benzenesulfonyl}cyclopentane-1-carboxylic acid] — 1.8-fold lower, 95 nM
- Cc1cc2c(cc(C(=O)N[C@H](C)c3ccc(S(=O)(=O)C4CCOC4=O)cc3)n2C)c(Cl)c1Cl (stereo partly drawn) [Example 05-023, 4,5-dichloro-1,6-dimethyl-N-[(1R)-1-{4-[(2-oxooxolan-3-yl)sulfonyl]phenyl}ethyl]-1H-indole-2-carboxamide] — within 1.5-fold, 119 nM
- Cc1cc2c(cc(C(=O)N[C@H](C)c3ccc(S(=O)(=O)C4CCOC4=O)cc3)n2C)c(F)c1F (stereo partly drawn) [Example 05-024, 4,5-difluoro-1,6-dimethyl-N-[(1R)-1-{4-[(2-oxooxolan-3-yl)sulfonyl]phenyl}ethyl]-1H-indole-2-carboxamide] — within 1.5-fold, 119 nM
- Cc1cc2c(cc(C(=O)N[C@H](CO)c3ccc([S@@+]([O-])CC(=O)O)cc3)n2C)c(Cl)c1Cl [Example 12-001, 2-[(S)-4-[(1S)-1-[(4,5-dichloro-1,6-dimethyl-1H-indol-2-yl)formamido]-2-hydroxyethyl]benzenesulfinyl]acetic acid] — 19-fold lower, 9 nM
